The target in one test is T1, ALK5 kinase (Homo sapiens, UniProt P36897).
T1 sequence (P36897 34-503): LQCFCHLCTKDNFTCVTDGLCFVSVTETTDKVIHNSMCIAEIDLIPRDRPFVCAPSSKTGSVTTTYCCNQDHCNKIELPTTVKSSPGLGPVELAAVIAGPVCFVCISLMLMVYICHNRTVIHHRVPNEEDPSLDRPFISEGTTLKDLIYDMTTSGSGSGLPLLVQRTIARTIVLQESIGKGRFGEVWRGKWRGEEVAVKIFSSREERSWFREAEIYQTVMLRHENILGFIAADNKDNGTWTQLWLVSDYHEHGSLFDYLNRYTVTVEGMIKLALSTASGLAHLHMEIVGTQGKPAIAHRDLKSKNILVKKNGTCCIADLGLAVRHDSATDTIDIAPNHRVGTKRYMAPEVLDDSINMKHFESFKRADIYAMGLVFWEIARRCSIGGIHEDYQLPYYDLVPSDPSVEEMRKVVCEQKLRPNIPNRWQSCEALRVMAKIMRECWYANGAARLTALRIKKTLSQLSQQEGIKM
As to the kind of experiment: LanthaScreen Eu Kinase Binding Assay. The following applies: Kinase Tracer 178, Eu-anti-GST Antibody, read-out: IC50 Enzyme. An outline of the steps:
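Tracer-displacement TR-FRET: after 30 min RT compound–kinase preincubation, Eu-labelled anti-GST antibody plus Kinase Tracer 178 were incubated 60 min at RT. Binding was read as a lower 665 nm/615 nm emission ratio (excitation 340 nm).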

A further test has as its system TGF-β signaling. Description: Assay for evaluating cellular inhibition of TGF-β signaling, 4T1 (SBE-luc2P) luciferase reporter. Format: cell-based. The conditions noted are these: Mus musculus, 4T1, 4T1 (SBE-luc2P) transient pool, 0.2% FBS, 2 h pre-treatment, TGF-β1 2 ng/mL 24 h; read-out: IC50 4T1 Cell. Put shortly: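 Luminescence from SMAD-binding-element luciferase was measured after 24 h of 2 ng/mL TGF-β1 at 37 °C, following 2 h compound pre-treatment. HEK293 stable reporter cells were used at 2.5×10^4/well in 0.5% FBS (~80% confluent); the 4T1 SBE-luc2P transient pool at 6×10^3/well in 0.2% FBS (~60% confluent).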
(In a reporter assay the amount or activity of a reporter protein is the signal.)

Each structure is given as a SMILES string. pIC50: −log10 of the molar value. Some results are limits rather than exact numbers.

In the case of `CCc1nc(-c2cccc(C)n2)c(Oc2ccnc(Nc3ccnc(C(=O)NC)c3)c2)s1` [A-265, 4-((4-((2-Ethyl-4-(6-methylpyridin-2-yl)thiazol-5-yl)oxy)pyridin-2-yl)amino)-N-methylpicolinamide], the pIC50 at ALK5 kinase and with TGF-β signaling was over 7.00 throughout.
Consider `CNc1nc(-c2ccccc2)c(Oc2ccnc(Nc3ccc(C(N)=O)cc3)c2)s1` [A-310, 4-((4-((2-(Methylamino)-4-phenylthiazol-5-yl)oxy)pyridin-2-yl)amino)benzamide], for which the negative-log IC50 (pIC50) (commonly −log10 of the IC50, conventionally taken in molar units) on ALK5 kinase is over 7.00; in the test with TGF-β signaling it was under 7.00.
For the compound `CNc1nc(-c2ccc3ccccc3c2)c(Oc2ccnc(Nc3cccc(S(N)(=O)=O)c3)c2)s1` [A-233, 3-((4-((2-(Methylamino)-4-(naphthalen-2-yl)thiazol-5-yl)oxy)pyridin-2-yl)amino)benzenesulfonamide], the pIC50 on ALK5 kinase and with TGF-β signaling was under 7.00 each time.
Regarding `CNC(=O)c1cccc(Nc2cc(Oc3sc(C(C)C)nc3-c3ccccc3)ccn2)n1` [A-225, 6-((4-((2-Isopropyl-4-phenylthiazol-5-yl)oxy)pyridin-2-yl)amino)-N-methylpicolinamide], the negative-log IC50 (pIC50) at ALK5 kinase and in the test on TGF-β signaling was over 7.00 in each case.
On to `O=C(O)c1ccc(Nc2cc(Oc3sc(C4CCCC4)nc3-c3ccccc3)ccn2)cc1` [A-175, 4-((4-((2-Cyclopentyl-4-phenylthiazol-5-yl)oxy)pyridin-2-yl)amino)benzoic acid], for which the negative-log IC50 (pIC50) at ALK5 kinase was over 7.00; in the test on TGF-β signaling, under 7.00.
With `Cc1nc(-c2ccccc2)c(Oc2ccnc(Nc3cccc(CCc4nn[nH]n4)c3)c2)s1` [A-114, N-(3-(2-(2H-Tetrazol-5-yl)ethyl)phenyl)-4-((2-methyl-4-phenylthiazol-5-yl)oxy)pyridin-2-amine], the negative logarithm of the IC50 (pIC50) on ALK5 kinase and in the test on TGF-β signaling was over 7.00 throughout.
As to `Nc1nc(-c2ccccc2)c(Oc2ccnc(Nc3ccc(C(=O)O)cc3)c2)s1` [A-39, 4-((4-((2-Amino-4-phenylthiazol-5-yl)oxy)pyridin-2-yl)amino)benzoic acid], the pIC50 at ALK5 kinase is over 7.00; in the test on TGF-β signaling it was under 7.00.
With `Cc1cccc(-c2nc(N)sc2Oc2ccnc(Nc3cccc(C(=O)O)c3)c2)n1` [A-249, 3-((4-((2-Amino-4-(6-methylpyridin-2-yl)thiazol-5-yl)oxy)pyridin-2-yl)amino)benzoic acid], the negative-log IC50 (pIC50) on ALK5 kinase and in the test with TGF-β signaling was over 7.00 in each case.
Consider `CN(C)c1nc(-c2ccccc2)c(Oc2ccnc(Nc3ccc(C(N)=O)cc3)c2)s1` [A-157, 4-((4-((2-(Dimethylamino)-4-phenylthiazol-5-yl)oxy)pyridin-2-yl)amino)benzamide], for which the negative logarithm of the IC50 (pIC50) at ALK5 kinase and with TGF-β signaling was over 7.00 in each case.
With `CNC(=O)c1ccc(Nc2cc(Oc3sc(C4CCCCC4)nc3-c3ccccc3)ccn2)nc1` [A-180, 6-((4-((2-Cyclohexyl-4-phenylthiazol-5-yl)oxy)pyridin-2-yl)amino)-N-methylnicotinamide], the pIC50 at ALK5 kinase and in the test with TGF-β signaling was under 7.00 each time.
In the case of `Cc1cccc(-c2nc(C)sc2Oc2ccnc(Nc3cccc(S(N)(=O)=O)c3)c2)n1` [A-303, 3-((4-((2-Methyl-4-(6-methylpyridin-2-yl)thiazol-5-yl)oxy)pyridin-2-yl)amino)benzenesulfonamide], the pIC50 at ALK5 kinase and in the test on TGF-β signaling was over 7.00 in each case.
For the compound `CC(C)c1nc(-c2ccccc2)c(Oc2ccnc(Nc3cccc(C(N)=O)n3)c2)s1` [A-226, 6-((4-((2-Isopropyl-4-phenylthiazol-5-yl)oxy)pyridin-2-yl)amino)picolinamide], the pIC50 at ALK5 kinase was over 7.00; with TGF-β signaling, under 7.00.
As to `Cc1nc(-c2ccccc2)c(Oc2ccnc(Nc3ccc(S(N)(=O)=O)cc3)c2)s1` [A-64, 4-((4-((2-Methyl-4-phenylthiazol-5-yl)oxy)pyridin-2-yl)amino)benzenesulfonamide], the results for the negative-log IC50 (pIC50) at ALK5 kinase and with TGF-β signaling were over 7.00 and under 7.00, respectively.
With `Cc1cccc(-c2nc(C)sc2Oc2ccnc(Nc3cccc(C(C)(C)C(=O)O)c3)c2)n1` [A-309, 2-Methyl-2-(3-((4-((2-methyl-4-(6-methylpyridin-2-yl)thiazol-5-yl)oxy)pyridin-2-yl)amino)phenyl)propanoic acid], the pIC50 on ALK5 kinase and in the test on TGF-β signaling was over 7.00 throughout.
Consider `CC(C)(O)c1cccc(Nc2cc(Oc3sc(C4CC4)nc3-c3ccccc3)ccn2)c1` [A-115, 2-(3-((4-((2-Cyclopropyl-4-phenylthiazol-5-yl)oxy)pyridin-2-yl)amino)phenyl)propan-2-ol], for which the pIC50 on ALK5 kinase is over 7.00; in the test with TGF-β signaling it was under 7.00.
For `CC(C)c1nc(-c2ccccc2)c(Oc2ccnc(Nc3cccc(S(N)(=O)=O)c3)c2)s1` [A-218, 3-((4-((2-Isopropyl-4-phenylthiazol-5-yl)oxy)pyridin-2-yl)amino)benzenesulfonamide], the pIC50 at ALK5 kinase and with TGF-β signaling was under 7.00 each time.
Consider `NC(=O)c1ccc(Nc2cc(Oc3sc(C4CC4)nc3-c3ccccc3)ccn2)nc1` [A-129, 6-((4-((2-Cyclopropyl-4-phenylthiazol-5-yl)oxy)pyridin-2-yl)amino)nicotinamide], for which the pIC50 at ALK5 kinase and with TGF-β signaling was over 7.00 in each case.
`CNC(=O)c1ccc(Nc2cc(Oc3sc(N(C)C)nc3-c3cccc(C)n3)ccn2)nc1` [A-286, 6-((4-((2-(Dimethylamino)-4-(6-methylpyridin-2-yl)thiazol-5-yl)oxy)pyridin-2-yl)amino)-N-methylnicotinamide]: the negative logarithm of the IC50 (pIC50) at ALK5 kinase and with TGF-β signaling was over 7.00 in each case.
Consider `CNc1nc(-c2ccccc2)c(Oc2ccnc(Nc3ccc(C(=O)O)cc3)c2)s1` [A-56, 4-((4-((2-(Methylamino)-4-phenylthiazol-5-yl)oxy)pyridin-2-yl)amino)benzoic acid], for which the negative logarithm of the IC50 (pIC50) at ALK5 kinase is over 7.00; in the test with TGF-β signaling, under 7.00.
With `O=C(O)c1cccc(Nc2cc(Oc3sc(NC4CC4)nc3-c3ccccc3)ccn2)c1` [A-48, 3-((4-((2-(Cyclopropylamino)-4-phenylthiazol-5-yl)oxy)pyridin-2-yl)amino)benzoic acid], the negative-log IC50 (pIC50) is over 7.00 on ALK5 kinase and under 7.00 in the test on TGF-β signaling.
Consider `CN(C)c1nc(-c2ccccc2)c(Oc2ccnc(Nc3cccc(C(=O)O)n3)c2)s1` [A-169, 6-((4-((2-(Dimethylamino)-4-phenylthiazol-5-yl)oxy)pyridin-2-yl)amino)picolinic acid], for which the negative-log IC50 (pIC50) on ALK5 kinase is over 7.00; with TGF-β signaling, under 7.00.
Take `Cc1nc(-c2ccccc2)c(Oc2ccnc(Nc3cc(C(N)=O)ccn3)c2)s1` [A-93, 2-((4-((2-Methyl-4-phenylthiazol-5-yl)oxy)pyridin-2-yl)amino)isonicotinamide]: the negative logarithm of the IC50 (pIC50) at ALK5 kinase and in the test on TGF-β signaling was over 7.00 throughout.
With `CN(C)c1nc(-c2ccccc2)c(Oc2ccnc(Nc3ccc(C(C)(C)O)nc3)c2)s1` [A-159, 2-(5-((4-((2-(Dimethylamino)-4-phenylthiazol-5-yl)oxy)pyridin-2-yl)amino)pyridin-2-yl)propan-2-ol], the results for the pIC50 at ALK5 kinase and in the test with TGF-β signaling were over 7.00 and under 7.00, respectively.
Take `CCc1nc(-c2cccc(C)n2)c(Oc2ccnc(Nc3cncc(C(=O)NC)c3)c2)s1` [A-262, 5-((4-((2-Ethyl-4-(6-methylpyridin-2-yl)thiazol-5-yl)oxy)pyridin-2-yl)amino)-N-methylnicotinamide]: the negative-log IC50 (pIC50) at ALK5 kinase and in the test on TGF-β signaling was over 7.00 in each case.
In the case of `O=C(O)c1ccc(Nc2cc(Oc3sc(NC4CC4)nc3-c3ccccc3)ccn2)cc1` [A-49, 4-((4-((2-(Cyclopropylamino)-4-phenylthiazol-5-yl)oxy)pyridin-2-yl)amino)benzoic acid], the results for the pIC50 on ALK5 kinase and in the test on TGF-β signaling were over 7.00 and under 7.00, respectively.
For `Cc1cccc(-c2nc(C3CC3)sc2Oc2ccnc(Nc3cccc(C(N)=O)c3)c2)n1` [A-274, 3-((4-((2-Cyclopropyl-4-(6-methylpyridin-2-yl)thiazol-5-yl)oxy)pyridin-2-yl)amino)benzamide], the pIC50 at ALK5 kinase and in the test on TGF-β signaling was over 7.00 in each case.
For `CNC(=O)c1ccc(Nc2cc(Oc3sc(C(C)C)nc3-c3ccccc3)ccn2)cc1` [A-229, 4-((4-((2-Isopropyl-4-phenylthiazol-5-yl)oxy)pyridin-2-yl)amino)-N-methylbenzamide], the pIC50 at ALK5 kinase was over 7.00; in the test with TGF-β signaling, under 7.00.
In the same order, the values of `Cc1nc(-c2ccccc2)c(Oc2ccnc(Nc3ccc(OCCN4CCCCC4)cc3)c2)s1` [A-105, 4-((2-Methyl-4-phenylthiazol-5-yl)oxy)-N-(4-(2-(piperidin-1-yl)ethoxy)phenyl)pyridin-2-amine] are over 7.00 and over 7.00.
On to `O=C(O)c1ccc(Nc2cc(Oc3sc(C(F)(F)F)nc3-c3ccccc3)ccn2)nc1` [A-149, 6-((4-((4-Phenyl-2-(trifluoromethyl)thiazol-5-yl)oxy)pyridin-2-yl)amino)nicotinic acid], for which the negative-log IC50 (pIC50) on ALK5 kinase and with TGF-β signaling was over 7.00 in each case.

The values are drawn from US20250206730A1 (AUTOTELIC BIO INC., priority 2022, published 2025).
